Assays:
[1] = biological target: Tryptophan 2,3-dioxygenase (Mus musculus, UniProt P48776); test: Inhibition of mouse TDO
[2] = biological target: Indoleamine 2,3-dioxygenase 1 (Mus musculus, UniProt P28776); test: Inhibition of mouse IDO1
[3] = biological target: T1, Indoleamine 2,3-dioxygenase 2 (Homo sapiens, UniProt Q6ZQW0); test: Inhibition of human IDO2
T1 sequence (Q6ZQW0 whole entry): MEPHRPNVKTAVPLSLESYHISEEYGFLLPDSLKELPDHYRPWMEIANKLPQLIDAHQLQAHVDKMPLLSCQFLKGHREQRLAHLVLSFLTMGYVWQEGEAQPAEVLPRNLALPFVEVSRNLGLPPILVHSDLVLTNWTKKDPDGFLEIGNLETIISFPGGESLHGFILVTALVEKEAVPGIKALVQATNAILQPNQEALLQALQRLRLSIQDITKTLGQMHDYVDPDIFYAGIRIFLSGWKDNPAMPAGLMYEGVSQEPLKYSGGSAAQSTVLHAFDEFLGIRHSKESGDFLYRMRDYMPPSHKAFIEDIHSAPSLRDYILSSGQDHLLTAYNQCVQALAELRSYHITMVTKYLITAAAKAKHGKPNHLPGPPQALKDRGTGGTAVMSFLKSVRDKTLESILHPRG

[4] = biological target: Tryptophan 2,3-dioxygenase (Homo sapiens, UniProt P48775); test: Inhibition of TDO (unknown origin)
[5] = biological target: T2, Kynurenine 3-monooxygenase (Saccharomyces cerevisiae (strain ATCC 204508 / S288c) (Baker's yeast), UniProt P38169); test: Inhibition of yeast KMO
T2 sequence (P38169 whole entry): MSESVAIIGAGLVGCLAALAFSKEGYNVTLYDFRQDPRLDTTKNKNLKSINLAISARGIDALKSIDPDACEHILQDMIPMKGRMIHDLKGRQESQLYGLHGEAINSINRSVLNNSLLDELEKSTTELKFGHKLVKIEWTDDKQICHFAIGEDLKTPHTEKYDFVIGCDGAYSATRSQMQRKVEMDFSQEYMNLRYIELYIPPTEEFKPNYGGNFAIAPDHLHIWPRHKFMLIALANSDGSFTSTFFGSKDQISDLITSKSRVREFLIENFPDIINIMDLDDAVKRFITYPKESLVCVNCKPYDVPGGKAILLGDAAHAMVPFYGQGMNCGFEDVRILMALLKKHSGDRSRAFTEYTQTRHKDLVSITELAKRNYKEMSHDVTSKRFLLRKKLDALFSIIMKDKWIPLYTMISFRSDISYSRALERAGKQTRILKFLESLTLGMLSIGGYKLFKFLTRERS

[6] = biological target: Kynurenine 3-monooxygenase (Homo sapiens, UniProt O15229); test: Inhibition of human KMO
[7] = biological target: Kynurenine/alpha-aminoadipate aminotransferase, mitochondrial (Rattus norvegicus, UniProt Q64602); test: Inhibition of rat KAT-2
Sequence of Kynurenine/alpha-aminoadipate aminotransferase, mitochondrial (Q64602 whole entry): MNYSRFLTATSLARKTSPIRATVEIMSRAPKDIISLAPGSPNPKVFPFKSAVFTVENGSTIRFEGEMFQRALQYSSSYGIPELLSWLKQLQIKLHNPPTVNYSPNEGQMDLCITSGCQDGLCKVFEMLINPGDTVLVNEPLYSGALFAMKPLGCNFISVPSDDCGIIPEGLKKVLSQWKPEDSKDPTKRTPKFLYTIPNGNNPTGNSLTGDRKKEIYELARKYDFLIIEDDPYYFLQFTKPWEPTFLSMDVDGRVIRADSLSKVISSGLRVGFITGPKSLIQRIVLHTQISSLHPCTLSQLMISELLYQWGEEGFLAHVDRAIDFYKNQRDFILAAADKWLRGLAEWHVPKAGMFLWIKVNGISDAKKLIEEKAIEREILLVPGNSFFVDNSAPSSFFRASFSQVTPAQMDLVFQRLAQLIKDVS

Sequence of Indoleamine 2,3-dioxygenase 1 (P28776 whole entry): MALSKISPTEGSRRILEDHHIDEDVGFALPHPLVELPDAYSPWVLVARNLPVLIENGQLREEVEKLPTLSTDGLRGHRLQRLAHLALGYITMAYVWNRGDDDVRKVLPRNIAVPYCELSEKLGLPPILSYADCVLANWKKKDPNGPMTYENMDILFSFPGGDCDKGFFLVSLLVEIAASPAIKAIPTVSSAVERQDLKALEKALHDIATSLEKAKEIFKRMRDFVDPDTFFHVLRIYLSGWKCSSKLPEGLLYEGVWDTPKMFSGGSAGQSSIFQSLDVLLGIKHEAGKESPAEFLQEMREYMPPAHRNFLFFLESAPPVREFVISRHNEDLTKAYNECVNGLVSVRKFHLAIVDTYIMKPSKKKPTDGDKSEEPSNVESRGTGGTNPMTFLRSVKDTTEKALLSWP
Sequence of Tryptophan 2,3-dioxygenase (Mus musculus, UniProt P48776) (P48776 whole entry): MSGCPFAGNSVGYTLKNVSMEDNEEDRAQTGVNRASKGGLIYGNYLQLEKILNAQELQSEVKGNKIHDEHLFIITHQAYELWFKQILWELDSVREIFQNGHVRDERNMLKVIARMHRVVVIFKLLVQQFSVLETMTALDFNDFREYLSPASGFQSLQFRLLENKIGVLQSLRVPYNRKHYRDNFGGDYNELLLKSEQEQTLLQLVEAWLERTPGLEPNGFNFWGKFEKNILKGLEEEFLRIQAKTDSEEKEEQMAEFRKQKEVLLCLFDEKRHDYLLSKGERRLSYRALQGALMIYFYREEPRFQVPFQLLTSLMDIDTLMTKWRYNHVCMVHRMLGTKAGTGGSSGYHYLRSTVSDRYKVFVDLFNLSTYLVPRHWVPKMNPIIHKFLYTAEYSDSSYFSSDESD
Sequence of Tryptophan 2,3-dioxygenase (Homo sapiens, UniProt P48775) (P48775 whole entry): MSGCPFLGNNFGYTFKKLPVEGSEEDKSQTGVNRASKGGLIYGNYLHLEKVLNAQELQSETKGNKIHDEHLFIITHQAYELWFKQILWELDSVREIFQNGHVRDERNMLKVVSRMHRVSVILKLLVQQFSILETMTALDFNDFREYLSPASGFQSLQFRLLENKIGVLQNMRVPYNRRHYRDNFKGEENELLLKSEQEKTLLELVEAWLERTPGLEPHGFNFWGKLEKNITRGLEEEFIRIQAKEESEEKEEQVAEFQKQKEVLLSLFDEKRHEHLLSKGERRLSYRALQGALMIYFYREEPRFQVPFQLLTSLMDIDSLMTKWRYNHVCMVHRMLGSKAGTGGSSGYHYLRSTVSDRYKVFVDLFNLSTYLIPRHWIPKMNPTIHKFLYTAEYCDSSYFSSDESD
Sequence of Kynurenine 3-monooxygenase (Homo sapiens, UniProt O15229) (O15229 whole entry): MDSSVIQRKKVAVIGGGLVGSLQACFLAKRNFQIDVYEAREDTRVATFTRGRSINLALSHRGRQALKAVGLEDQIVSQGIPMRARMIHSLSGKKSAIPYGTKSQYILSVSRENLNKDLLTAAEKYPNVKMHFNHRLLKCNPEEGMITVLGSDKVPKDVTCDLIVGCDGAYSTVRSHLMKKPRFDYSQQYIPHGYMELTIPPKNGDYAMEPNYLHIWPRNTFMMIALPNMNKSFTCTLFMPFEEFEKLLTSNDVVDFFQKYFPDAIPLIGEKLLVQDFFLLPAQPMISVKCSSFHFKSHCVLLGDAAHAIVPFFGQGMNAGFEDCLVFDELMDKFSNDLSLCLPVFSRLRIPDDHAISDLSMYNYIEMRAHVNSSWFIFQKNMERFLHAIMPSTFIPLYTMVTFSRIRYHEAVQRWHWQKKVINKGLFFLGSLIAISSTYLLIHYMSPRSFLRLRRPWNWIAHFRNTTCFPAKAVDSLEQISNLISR

Question: Which IC50 [1] does the source give for Fc1ccc2c(/C=C/c3nnn[nH]3)c[nH]c2c1 here?
Answer: 1.96 µM

Question: And the IC50 [2]?
Answer: > 400 µM

Question: For Cc1ccc(-c2csc3nnc(SCC(=O)Nc4ccc5c(c4)OCO5)n23)cc1, which IC50 [3] is on record?
Answer: > 250 µM

Question: What about the IC50 [4] of the same compound?
Answer: > 62.5 µM

Question: Which results are given for Fc1ccc2c(/C=C/c3cccnc3)c[nH]c2c1?
Answer: IC50 [1]: 1.46 µM; IC50 [2]: > 80 µM

Question: O=C(CC1c2ccccc2-c2cncn21)C1CCCCC1 (stereo unspecified) was tested. Which IC50 [4] did it give?
Answer: < 1 µM

Question: Which results are given for O=C(O)C1CC1C(=O)c1ccc(Cl)c(Cl)c1 (stereo unspecified)?
Answer: IC50 [5]: 0.074 µM; IC50 [6]: 0.02 µM

Question: How did the IC50 [7] turn out when CCS(=O)(=O)c1ccc(C(=O)C[C@H](N)C(=O)O)cc1 was run?
Answer: 71 µM

Question: How did the IC50 [7] turn out when O=C1NC(=O)/C(=C/c2cccc(-c3ccc4c5c3CCC(=O)N5CC4)c2)S1 was run?
Answer: 13.4 µM

Source: ChEMBL document CHEMBL3627665, “Challenges and Opportunities in the Discovery of New Therapeutics Targeting the Kynurenine Pathway” (J Med Chem, 2015)
